Assay results as given in patent publication US10183011B2, “Anti-depression compounds” (Board of Regents of the University of Texas System, priority 2009, dated 2019).

Legend:
R6/2 transgenic mice = assay: R6/2 model of Huntington's disease; format: in vivo, mouse
Procedure: FIG. 26A and FIG. 26B. Example 45 Compound (P7C3) Provides Therapeutic Benefit in Animal Model of Huntington's Disease. 40 female R6/2 mice were included in each of VEH (vehicle) and P7C3 (10 mg/kg P7C3 i.p. twice daily) groups, and treatment was begun at 6 weeks of age. […] All measurements were conducted blind to genotype and treatment group.
In one hypothesis, P7C3 (and its derivates) may enhance the formation of neurons in the mature hippocampus by preventing death rather than promoting proliferation of these cells. As such, P7C3 is “proneurogenic” by virtue of its neuroprotective activity. It is also possible that P7C3 (and its derivates) prevents cell death and promotes cell proliferation. It was evaluated whether P7C3 might provide therapeutic benefit in R6/2 mice. […] General condition score was determined by a 3 point scoring system that was conducted blind to genotype and treatment group (score of 0=fur looks groomed, normal posture (no hunch), clear eyes, alert; score of 1=fur beginning to stick up, slight hunch; score of 2=piloerection (fur sticking up), unkempt fur, hunch in back or neck area, crusty eyes). Death was monitored twice daily, and defined as either when animals were found dead, or when they were unable to right themselves after being placed on their backs with movement subsequently initiated by gentle prodding for 30 seconds. […]

[1] = test system: Ghsr-null and wild-type mice; assay: Caloric restriction: DG apoptosis (AC3) and forced swim test; format: in vivo, mouse
From the text: FIG. 42. Effects of P7C3 on caloric restriction-induced DG cell survival and antidepressant-like behavior, as measured by FST. (a) Protocol schematic. (b, c) AC3-immunoreactive cell counts in the DG of calorie-restricted and ad libitum-fed mice treated with P7C3 vs. vehicle. (d, e) FST immobility time. Group sizes indicated. (f-k) Representative photomicrograph images of AC3-immunolabeled ventral DG sections. (l-p) Magnified images of AC3-immunoreactive cells. Scale bar in (k; 150 μm) pertains to (f-k), in (p; 25 μm) pertains to (l-p). *P<0.05, **P<0.01, as compared to respective ad libitum-fed, vehicle-treated control group. ^#P<0.05, comparing compound treatment.
Prolonged caloric restriction in wild-type mice elicits an antidepressant-like response in the FST (decreased immobility), whereas this effect is not observed in Ghsr-null mice. To investigate whether this might be related to differences in apoptosis in the DG, similar to that observed above following CSDS, Ghsr-null and wild-type littermates were exposed to ad libitum food access vs. 60% caloric restriction for 10 days. Five days prior to this exposure and throughout the 10-day feeding period, mice received either P7C3 or vehicle. On Day 16, FST performance was assessed, followed by sacrifice of the animals for quantification of AC3+ cells in the DG (FIG. 42, panel a).
The 60% calorie restriction protocol was performed as previously (M. Lutter et al., The orexigenic hormone ghrelin defends against depressive symptoms of chronic stress. Nat Neurosci 11, 752 (2008)). Mice received twice-daily injections of either P7C3 (20 mg/kg/d in divided doses) or vehicle 5 days prior to and during 10 days of calorie restriction or ad-lib feeding, replicating the injection protocol used for the CSDS studies. On Day 16, the forced swim test was performed for each mouse as done previously.

[2] = caloric-restricted Ghsr-null mice
[3] = caloric-restricted wild-type mice

OC(CNc1ccccc1)Cn1c2ccc(Br)cc2c2cc(Br)ccc21 (stereo not drawn) [Example P7C3]
survival of R6/2 mice (R6/2 transgenic mice; 10 mg/kg i.p. twice daily from 6 weeks of age): delays animal death by about three weeks
general condition score (R6/2 transgenic mice; at 14 weeks of age): improved general condition score and appearance
AC3+ cells in the DG [1, 2]: blocked the increase in apoptosis observed after caloric restriction
FST immobility [1, 2]: significantly decrease immobility
AC3+ cells in the DG [1, 3]: did not further reduce the number of AC3+ cells
FST immobility [1, 3]: had no further effect on reducing immobility
